Data taken from patent US9834551B2, “Substituted pyrrolo[2,3-b]pyrazines and substituted pyrazolo[3,4-b]pyridines as ITK and JAK kinase inhibitors” (Arrien Pharmaceuticals LLC, priority 2013, dated 2017).

Key:
[1] = system: Established Type II Collagen Arthritis; assay: Established type II collagen arthritis, PO BID, 11 day
Source text: Effects of 1H-pyrrolo[2,3-b]pyridine series of compounds Administered PO, BID in 11 Day DBA/1OlaHsd Mouse Established Type II Collagen Arthritis

JAK3 = JAK3 (Homo sapiens (Human), UniProt P52333); assay: JAK3 kinase assay (radiometric filter assay); type: biochemical; settings: 10 μM ATP; 10-dose IC50 mode, 3 fold serial dilution starting at 100 μM; read-out: JAK3 kinase inhibition
Sequence of JAK3 (P52333 whole entry): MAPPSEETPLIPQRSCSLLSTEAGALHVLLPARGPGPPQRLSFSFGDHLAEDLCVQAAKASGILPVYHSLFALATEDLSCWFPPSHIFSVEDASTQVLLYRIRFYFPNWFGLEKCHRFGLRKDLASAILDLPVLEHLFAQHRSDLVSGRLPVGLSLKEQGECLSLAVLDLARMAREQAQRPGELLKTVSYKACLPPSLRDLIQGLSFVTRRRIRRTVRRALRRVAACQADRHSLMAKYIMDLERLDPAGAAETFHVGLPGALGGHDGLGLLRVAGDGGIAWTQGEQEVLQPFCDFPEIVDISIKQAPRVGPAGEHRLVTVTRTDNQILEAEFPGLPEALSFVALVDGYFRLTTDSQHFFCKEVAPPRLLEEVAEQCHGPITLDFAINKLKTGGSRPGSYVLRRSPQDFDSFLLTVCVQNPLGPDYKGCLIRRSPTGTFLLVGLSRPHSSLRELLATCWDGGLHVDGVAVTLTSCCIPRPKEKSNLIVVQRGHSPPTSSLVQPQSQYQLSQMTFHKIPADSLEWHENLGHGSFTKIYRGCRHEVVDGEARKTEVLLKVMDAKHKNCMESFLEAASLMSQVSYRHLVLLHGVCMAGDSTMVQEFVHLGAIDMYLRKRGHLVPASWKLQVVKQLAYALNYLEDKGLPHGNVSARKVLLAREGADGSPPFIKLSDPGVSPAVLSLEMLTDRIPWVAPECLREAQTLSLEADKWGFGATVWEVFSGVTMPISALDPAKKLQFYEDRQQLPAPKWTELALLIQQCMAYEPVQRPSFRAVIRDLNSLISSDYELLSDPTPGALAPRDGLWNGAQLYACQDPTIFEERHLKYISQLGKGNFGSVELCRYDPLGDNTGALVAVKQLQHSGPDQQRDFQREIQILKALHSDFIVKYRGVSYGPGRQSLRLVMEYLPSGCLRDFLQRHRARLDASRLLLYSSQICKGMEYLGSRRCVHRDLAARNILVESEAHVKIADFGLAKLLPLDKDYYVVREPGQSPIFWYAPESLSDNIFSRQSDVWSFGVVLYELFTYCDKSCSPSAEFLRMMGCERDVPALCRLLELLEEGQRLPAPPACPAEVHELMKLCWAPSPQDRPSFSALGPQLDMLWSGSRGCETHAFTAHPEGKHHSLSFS
Method: (§1) All additions were done on ice, followed by the addition of ATP mix. Wells were uniformly mixed using an Eppendorff plate shaker and incubated at 30° C. for 20 min, and stopped by the addition of 5 μL of 3% phosphoric acid. Volume was increased to 100 μL by adding 0.8% phosphoric acid which was then transferred to PC filter mats (Millipore), pre-equilibrated with 70% ethanol and water. Plates were washed thrice with 100 μL 0.8% phosphoric acid and dried for an hour at 60° C. 100 μL scintillation fluid was added into each well and reading taken in Perkin Elmer TOPCOUNT beta counter.
(§2) The reactions were carried out at 10 μM ATP for ITK, JAK3 and other TEC and Janus family of kinase.

ITK = ITK (Homo sapiens (Human), UniProt Q08881); assay: ITK kinase assay (radiometric filter assay); type: biochemical; settings: 10 μM ATP; 10-dose IC50 mode, 3 fold serial dilution starting at 100 μM; read-out: ITK kinase inhibition
Sequence of ITK (Q08881 whole entry): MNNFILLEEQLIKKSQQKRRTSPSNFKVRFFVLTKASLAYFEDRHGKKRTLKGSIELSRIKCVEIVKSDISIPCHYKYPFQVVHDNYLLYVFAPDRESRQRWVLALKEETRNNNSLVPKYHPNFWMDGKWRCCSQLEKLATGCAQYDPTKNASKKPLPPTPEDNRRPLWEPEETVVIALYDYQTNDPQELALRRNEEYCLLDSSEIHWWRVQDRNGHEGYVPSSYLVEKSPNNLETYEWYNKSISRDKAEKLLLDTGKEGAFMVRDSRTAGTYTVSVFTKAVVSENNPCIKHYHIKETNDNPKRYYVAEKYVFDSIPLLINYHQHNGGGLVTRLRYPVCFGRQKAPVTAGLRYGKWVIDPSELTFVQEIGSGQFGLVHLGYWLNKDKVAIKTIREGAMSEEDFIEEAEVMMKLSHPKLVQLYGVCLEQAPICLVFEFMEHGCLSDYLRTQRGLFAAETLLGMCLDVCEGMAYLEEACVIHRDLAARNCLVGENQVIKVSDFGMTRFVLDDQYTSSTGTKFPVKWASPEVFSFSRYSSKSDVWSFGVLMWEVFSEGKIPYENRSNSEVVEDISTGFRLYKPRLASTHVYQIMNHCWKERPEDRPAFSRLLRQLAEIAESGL
Method: as §1, §2

| IC50 (JAK3) [nM] | IC50 (ITK) [nM] | SMILES | body weight ([1]; 60 mg/Kg) | effectiveness, suppression of the inflammatory response ([1]; collagen-induced arthritis in mice, PO BID) [%] |
| --- | --- | --- | --- | --- |
|  |  | C[C@@H]1CCN(C(=O)CC#N)C[C@@H]1N(C)c1ncnc2[nH]ccc12 [CP-690550/Tofacitinib, Tofacitinib] | body weight change from day 1 | 97 |
| > 100 | > 100 | C=CC(=O)Nc1cccc(-c2cnc3[nH]cc(NS(=O)(=O)CCC)c3c2)c1 [Example 97, N-(3-(3-(propylsulfonamido)-1H-pyrrolo[2,3-b]pyridin-5-yl)phenyl)acrylamide] |  |  |
| < 100 | < 100 | CCC#CC(=O)Nc1cc(-c2cnc3[nH]cc(C)c3c2)ccc1F [Example 31, N-(2-fluoro-5-(3-methyl-1H-pyrrolo[2,3-b]pyridin-5-yl)phenyl)pent-2-ynamide] |  |  |
